{"source": "paper PMC9927571", "about": "“Antibacterial Activity of an FtsZ Inhibitor Celastrol and Its Synergistic Effect with Vancomycin against Enterococci In Vitro and In Vivo” (Microbiology Spectrum, 2023)", "molecular_target": "T1, FtsZ (Filamenting temperature-sensitive mutant Z) (Enterococcus faecalis, UniProt O08439)", "T1 construct": "recombinant E. faecalis FtsZ protein (FTZ04-B)", "T1 sequence (O08439 whole entry, change not shown)": "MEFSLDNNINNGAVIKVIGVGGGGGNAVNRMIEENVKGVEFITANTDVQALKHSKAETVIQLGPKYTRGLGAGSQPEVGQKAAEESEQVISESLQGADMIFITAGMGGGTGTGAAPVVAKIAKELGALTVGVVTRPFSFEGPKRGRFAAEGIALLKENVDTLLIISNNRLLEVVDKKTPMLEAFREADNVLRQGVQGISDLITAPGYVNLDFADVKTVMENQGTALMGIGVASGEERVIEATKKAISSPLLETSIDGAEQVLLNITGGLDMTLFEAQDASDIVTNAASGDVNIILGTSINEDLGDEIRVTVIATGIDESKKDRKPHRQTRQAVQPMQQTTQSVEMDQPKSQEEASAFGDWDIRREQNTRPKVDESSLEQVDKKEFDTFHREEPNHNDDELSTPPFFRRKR", "experiment": "SPR (Biacore T200, FtsZ immobilized on CM5 chip); also GTPase inhibition of E. faecalis FtsZ, IC50 […]", "assay_type": "binding"}
{"smiles": "CC1=C(O)C(=O)C=C2C1=CC=C1[C@@]2(C)CC[C@@]2(C)[C@@H]3C[C@](C)(C(=O)O)CC[C@]3(C)CC[C@]12C", "note": "[CEL, celastrol]", "values": [{"measurement": "Kd", "value": 2450, "unit": "nM"}]}
